Test results published in the NIST ThermoML archive (doi:10.1021/je060271a).
Numbers after ± are expanded uncertainties.

Conditions: 303.16 K, Liquid, Vibrating tube method

CCCC(=O)OCC(COC(=O)CCC)(COC(=O)CCC)COC(=O)CCC [pentaerythritol tetrabutyrate]
Conditions | mass density [kg/m3]
6790.5 kPa | 1046.6 ± 1.3
6817.3 kPa | 1046.7 ± 1.3
6849.6 kPa | 1046.6 ± 1.3
6876.7 kPa | 1046.6 ± 1.3
6909 kPa | 1046.7 ± 1.3
6936.8 kPa | 1046.6 ± 1.3
6965.3 kPa | 1046.7 ± 1.3
6993.5 kPa | 1046.7 ± 1.3
7274.1 kPa | 1047 ± 1.3
7311.4 kPa | 1046.9 ± 1.3
7343 kPa | 1046.9 ± 1.3
7374.1 kPa | 1046.9 ± 1.3
7412.9 kPa | 1047 ± 1.3
7446.2 kPa | 1047 ± 1.3
7479.9 kPa | 1047.1 ± 1.3
7515.1 kPa | 1047 ± 1.3
7541.7 kPa | 1047.1 ± 1.3
7566.7 kPa | 1047.1 ± 1.3
7596.6 kPa | 1047.2 ± 1.3
7622.5 kPa | 1047.1 ± 1.3
7647.8 kPa | 1047.1 ± 1.3
7673.7 kPa | 1047.1 ± 1.3
7703.6 kPa | 1047.1 ± 1.3
7729.5 kPa | 1047.2 ± 1.3
7755.5 kPa | 1047.2 ± 1.3
7786.9 kPa | 1047.3 ± 1.3
7813.7 kPa | 1047.3 ± 1.3
7840.6 kPa | 1047.2 ± 1.3
7867.9 kPa | 1047.3 ± 1.3
7895 kPa | 1047.2 ± 1.3
7927.7 kPa | 1047.2 ± 1.3
7955 kPa | 1047.3 ± 1.3
7982.8 kPa | 1047.3 ± 1.3
8016.1 kPa | 1047.4 ± 1.3
8044.7 kPa | 1047.3 ± 1.3
8073.5 kPa | 1047.3 ± 1.3
8102.7 kPa | 1047.4 ± 1.3
8125 kPa | 1047.5 ± 1.3
8147.9 kPa | 1047.5 ± 1.3
8175.2 kPa | 1047.5 ± 1.3
8198.5 kPa | 1047.5 ± 1.3
8222.3 kPa | 1047.4 ± 1.3
8245.7 kPa | 1047.6 ± 1.3
8273.3 kPa | 1047.4 ± 1.3
8297.3 kPa | 1047.5 ± 1.3
8325.9 kPa | 1047.5 ± 1.3
8350.8 kPa | 1047.6 ± 1.3
8373.4 kPa | 1047.6 ± 1.3
8504.8 kPa | 1047.7 ± 1.3
8527.9 kPa | 1047.7 ± 1.3
8547 kPa | 1047.6 ± 1.3
8565.8 kPa | 1047.7 ± 1.3
8588.8 kPa | 1047.8 ± 1.3
8607.6 kPa | 1047.8 ± 1.3
8630.3 kPa | 1047.7 ± 1.3
8649.3 kPa | 1047.8 ± 1.3
8672.8 kPa | 1047.8 ± 1.3
8693.1 kPa | 1047.8 ± 1.3
8716 kPa | 1047.9 ± 1.3
8735.5 kPa | 1047.8 ± 1.3
8759.5 kPa | 1047.9 ± 1.3
8783.6 kPa | 1047.9 ± 1.3
8803.1 kPa | 1047.9 ± 1.3
8823.4 kPa | 1047.9 ± 1.3
8847.6 kPa | 1047.9 ± 1.3
8867.8 kPa | 1048 ± 1.3
8892.1 kPa | 1047.9 ± 1.3
8916.2 kPa | 1047.9 ± 1.3
8936.4 kPa | 1047.9 ± 1.3
8960.7 kPa | 1048 ± 1.3
8981.7 kPa | 1047.9 ± 1.3
9006.9 kPa | 1047.9 ± 1.3
9027.7 kPa | 1048 ± 1.3
9053.1 kPa | 1047.9 ± 1.3
9078.7 kPa | 1048.1 ± 1.3
9099.8 kPa | 1048 ± 1.3
9121 kPa | 1048.1 ± 1.3
9146.6 kPa | 1048 ± 1.3
9172.2 kPa | 1048.1 ± 1.3
9193.2 kPa | 1048.1 ± 1.3
9244.7 kPa | 1048.2 ± 1.3
9266.6 kPa | 1048.2 ± 1.3
9293.3 kPa | 1048.3 ± 1.3
9315.9 kPa | 1048.3 ± 1.3
9343.1 kPa | 1048.2 ± 1.3
9366.4 kPa | 1048.3 ± 1.3
9391.5 kPa | 1048.3 ± 1.3
9419 kPa | 1048.4 ± 1.3
9442.1 kPa | 1048.2 ± 1.3
9469.3 kPa | 1048.3 ± 1.3
9492.3 kPa | 1048.3 ± 1.3
9519.7 kPa | 1048.4 ± 1.3
9547.7 kPa | 1048.4 ± 1.3
9571.3 kPa | 1048.5 ± 1.3
9599.9 kPa | 1048.3 ± 1.3
9623.9 kPa | 1048.5 ± 1.3
9652 kPa | 1048.3 ± 1.3
9680.6 kPa | 1048.5 ± 1.3
9705 kPa | 1048.4 ± 1.3
9730.4 kPa | 1048.5 ± 1.3
9759.3 kPa | 1048.5 ± 1.3
9783.6 kPa | 1048.5 ± 1.3
9812.9 kPa | 1048.6 ± 1.3
9843 kPa | 1048.5 ± 1.3
9868 kPa | 1048.4 ± 1.3
9898.3 kPa | 1048.5 ± 1.3
9923.1 kPa | 1048.5 ± 1.3
9953.2 kPa | 1048.6 ± 1.3
9984.1 kPa | 1048.6 ± 1.3
10010 kPa | 1048.7 ± 1.3
10041 kPa | 1048.7 ± 1.3
10067 kPa | 1048.7 ± 1.3
10100 kPa | 1048.8 ± 1.3
10126 kPa | 1048.6 ± 1.3
10159 kPa | 1048.7 ± 1.3
10186 kPa | 1048.8 ± 1.3
10218 kPa | 1048.7 ± 1.3
10245 kPa | 1048.7 ± 1.3
10278 kPa | 1048.8 ± 1.3
10305 kPa | 1048.7 ± 1.3
10337 kPa | 1048.9 ± 1.3
10371 kPa | 1048.7 ± 1.3
10399 kPa | 1048.8 ± 1.3
10432 kPa | 1048.9 ± 1.3
10461 kPa | 1048.9 ± 1.3
10496 kPa | 1048.9 ± 1.3
10525 kPa | 1048.8 ± 1.3
10560 kPa | 1048.9 ± 1.3
10589 kPa | 1049 ± 1.3
10624 kPa | 1049 ± 1.3
10658 kPa | 1049.1 ± 1.3
10687 kPa | 1049 ± 1.3
10723 kPa | 1049.1 ± 1.3
10753 kPa | 1049 ± 1.3
10789 kPa | 1049.2 ± 1.3
10820 kPa | 1049.1 ± 1.3
10857 kPa | 1049.1 ± 1.3
10894 kPa | 1049.1 ± 1.3
10924 kPa | 1049.2 ± 1.3
10961 kPa | 1049.3 ± 1.3
10993 kPa | 1049.2 ± 1.3
11031 kPa | 1049.3 ± 1.3
11063 kPa | 1049.3 ± 1.3
11101 kPa | 1049.3 ± 1.3
11133 kPa | 1049.4 ± 1.3
11171 kPa | 1049.3 ± 1.3
